Measurements as given in patent publication US6159934A, “Use of GHRH-RP to stimulate stem cell factor production” (Indiana University Foundation, priority 1996, dated 2000).

Columns and labels:
[1] = tested on: α-inhibin gene expression in Sertoli cells; assay: Northern blot analysis of α-inhibin gene expression in cultured Sertoli cells; assay type: cell-based; conditions: GHRH-RP 10 nM and 100 nM, GHRH 10 nM, 16 hours, rat Sertoli cells
Description: (§1) As indicated above, it has been discovered that GHRH-RP has a unique testicular action. GHRH-RP specifically activated SVF in Sertoli cells as described in Example 3 below. […] Northern gel analysis of 10 μg of total Sertoli cell RNA was performed and the blot probed for SCF, transferrin, androgen binding protein (ABP), α-inhibin and γ-actin as control. B. Bloch, A. Baird, N. Ling, R. Guillemin, Endocrinology 118, 156 (1986). Stimulation of SCF expression is 12 fold over control at 10 nM and 16 fold at 100 nM concentrations of GHRH-RP. GHRH (10 nM) stimulated stem cell factor gene expression 3 fold over control. […] Other Sertoli cell specific transcripts including transferrin, ABP and α-inhibin were note regulated by GHRH-RP (FIG. 6). Although a functional GHRH receptor has been identified in Sertoli cells (R. S. Johnson, B. M. Spiegelman, V. Papaioannou, Cell 71, 577 (1992); K. M. Zsebo et al., Cell 63, 213 (1990); E. Huang et al., Cell 63, 225), the GHRH-RP stimulation of stem cell factor expression may not be mediated through this receptor. […] Adenylate cyclase stimulation is measured as fold stimulation of control. […]
(§2) Sprague-Dawley rats (20-22 day old) were obtained from Harlan Labs (Indianapolis, IN). […] Cell purity was monitored by phase contrast microscopy and by comparative reverse transcription-polymerase chain reaction (RT-PCR) amplification. […]

[2] = tested on: transferrin gene expression in Sertoli cells; assay: Northern blot analysis of transferrin gene expression in cultured Sertoli cells; assay type: cell-based; conditions: GHRH-RP 10 nM and 100 nM, GHRH 10 nM, 16 hours, rat Sertoli cells
Description: as §1, §2

[3] = tested on: stem cell factor (SCF) gene expression in Sertoli cells; assay: Northern blot analysis of SCF gene expression in cultured Sertoli cells; assay type: cell-based; conditions: 16 hours, rat Sertoli cells, actin as control
Description: As indicated above, it has been discovered that GHRH-RP has a unique testicular action. GHRH-RP specifically activated SVF in Sertoli cells as described in Example 3 below. […] Northern gel analysis of 10 μg of total Sertoli cell RNA was performed and the blot probed for SCF, transferrin, androgen binding protein (ABP), α-inhibin and γ-actin as control. B. Bloch, A. Baird, N. Ling, R. Guillemin, Endocrinology 118, 156 (1986). Stimulation of SCF expression is 12 fold over control at 10 nM and 16 fold at 100 nM concentrations of GHRH-RP. GHRH (10 nM) stimulated stem cell factor gene expression 3 fold over control. […] Other Sertoli cell specific transcripts including transferrin, ABP and α-inhibin were note regulated by GHRH-RP (FIG. 6). Although a functional GHRH receptor has been identified in Sertoli cells (R. S. Johnson, B. M. Spiegelman, V. Papaioannou, Cell 71, 577 (1992); K. M. Zsebo et al., Cell 63, 213 (1990); E. Huang et al., Cell 63, 225), the GHRH-RP stimulation of stem cell factor expression may not be mediated through this receptor. […] Briefly, shown in FIG. 6 are the results of experiments in which rat Sertoli cells, isolated and cultured for 4 days were incubated with GHRH-RP (100 nM), GHRH (100 nM), FSH (0.0275 U/ml) or control media for 30 minutes at 37° C. The cells were then assayed for cAMP production by 125 I cAMP Radioimmunoassay. C. H. Srivastava, J. D. Fleck, A. M. Meyers, S. A. Berry, O. H. Pescovitz, "Distribution of Growth Hormone Releasing Hormone-Like (HRH-LI) mRNA and Immunoreactivity in Rat Tissues" (Abstract), The Endocrine Society, 73rd Annual Endocrine Society, Washington, D.C. (1991). Adenylate cyclase stimulation is measured as fold stimulation of control. Each bar is representative of five separate experiments.
as §2

[4] = tested on: androgen binding protein (ABP) gene expression in Sertoli cells; assay: Northern blot analysis of androgen binding protein (ABP) gene expression in cultured Sertoli cells; assay type: cell-based; conditions: GHRH-RP 10 nM and 100 nM, GHRH 10 nM, 16 hours, rat Sertoli cells
Description: as §1, §2

[5] = tested on: adenylate cyclase in cultured Sertoli cells; assay: cAMP production (125I cAMP radioimmunoassay) in cultured Sertoli cells; assay type: cell-based; conditions: 100 nM, 30 minutes at 37° C., rat Sertoli cells day 4 of culture
Description: As indicated above, it has been discovered that GHRH-RP has a unique testicular action. GHRH-RP specifically activated SVF in Sertoli cells as described in Example 3 below. […] Northern gel analysis of 10 μg of total Sertoli cell RNA was performed and the blot probed for SCF, transferrin, androgen binding protein (ABP), α-inhibin and γ-actin as control. B. Bloch, A. Baird, N. Ling, R. Guillemin, Endocrinology 118, 156 (1986). Stimulation of SCF expression is 12 fold over control at 10 nM and 16 fold at 100 nM concentrations of GHRH-RP. GHRH (10 nM) stimulated stem cell factor gene expression 3 fold over control. […] Other Sertoli cell specific transcripts including transferrin, ABP and α-inhibin were note regulated by GHRH-RP (FIG. 6). Although a functional GHRH receptor has been identified in Sertoli cells (R. S. Johnson, B. M. Spiegelman, V. Papaioannou, Cell 71, 577 (1992); K. M. Zsebo et al., Cell 63, 213 (1990); E. Huang et al., Cell 63, 225), the GHRH-RP stimulation of stem cell factor expression may not be mediated through this receptor. […] Briefly, shown in FIG. 6 are the results of experiments in which rat Sertoli cells, isolated and cultured for 4 days were incubated with GHRH-RP (100 nM), GHRH (100 nM), FSH (0.0275 U/ml) or control media for 30 minutes at 37° C. […] Adenylate cyclase stimulation is measured as fold stimulation of control. […]

[6] = tested on: stem cell factor (SCF) gene expression in Sertoli cells; conditions: treatment of cultured Sertoli cells; Srivastava et al., Endocrinology 133, 1478 (1993); cited from earlier work
[7] = tested on: Sertoli cell c-fos gene expression; conditions: treatment of cultured Sertoli cells; Srivastava et al., Endocrinology 133, 1478 (1993); cited from earlier work

GHRH-RP: 30 amino acid C-terminal peptide of the GHRH precursor; rat peptide synthesized from the deduced amino acid sequence (amino acids 74-104) (HLDRVWAEDKQMALESILQGFPRMKLSAEA)
stimulation of α-inhibin gene expression over control [1]: no stimulation
stimulation of transferrin gene expression over control [2]: no stimulation
Stimulation of SCF expression ([3]; 10 nM): 12 fold over control
Stimulation of SCF expression ([3]; 100 nM): 16 fold
stimulation of ABP gene expression over control [4]: no stimulation
Adenylate cyclase stimulation (cAMP production) [5]: does not stimulate increases

GHRH: mature 43 amino acid rat GHRH peptide, hypothalamic factor that stimulates release of pituitary growth hormone (HADAIFTSSYRRILGQLYARKLLHEIMNRQQGERNQEQRSRFN)
Sertoli cell stem cell factor gene expression [6]: activates
stimulation of α-inhibin gene expression over control [1]: no stimulation
stimulation of transferrin gene expression over control [2]: no stimulation
Stimulation of SCF expression ([3]; 10 nM): 3 fold over control
stimulation of ABP gene expression over control [4]: no stimulation
Sertoli cell c-fos gene expression [7]: activates
